The results in this text go back to ChEMBL document CHEMBL5260848, “Recent advancements in the development of bioactive pyrazoline derivatives” (Eur J Med Chem, 2020).

The test system of one test is Staphylococcus aureus. Put plainly: microbe, parasite or virus in culture.
Test [1] has as its target T1, Carbonic anhydrase 9 (Homo sapiens, UniProt Q16790). In words: Inhibition of human CA9 preincubated for 15 mins by phenol red dye based stopped flow CO2 hydration assay.
Test [2] is described as follows: Cytotoxicity against human HPLF cells assessed as reduction in cell viability incubated for 48 hrs by MTT assay. It counts as functional. (Tetrazolium dyes change colour on reduction, which living cells bring about.)
Test [3] is described as follows: Cytotoxicity against human HPC cells assessed as reduction in cell viability incubated for 48 hrs by MTT assay. The format is functional.
The next test deals with HSC-3. Put plainly: Cytotoxicity against human HSC-3 cells assessed as reduction in cell viability incubated for 48 hrs by MTT assay. The format is functional.
Test [4] can be described thus: Cytotoxicity against human HGF cells assessed as reduction in cell viability incubated for 48 hrs by MTT assay. It counts as functional.
The target of a further test is Carbonic anhydrase 12 (Homo sapiens, UniProt O43570). In words: Inhibition of human CA12 preincubated for 15 mins by phenol red dye based stopped flow CO2 hydration assay.
Sequence of Carbonic anhydrase 12 (O43570 whole entry): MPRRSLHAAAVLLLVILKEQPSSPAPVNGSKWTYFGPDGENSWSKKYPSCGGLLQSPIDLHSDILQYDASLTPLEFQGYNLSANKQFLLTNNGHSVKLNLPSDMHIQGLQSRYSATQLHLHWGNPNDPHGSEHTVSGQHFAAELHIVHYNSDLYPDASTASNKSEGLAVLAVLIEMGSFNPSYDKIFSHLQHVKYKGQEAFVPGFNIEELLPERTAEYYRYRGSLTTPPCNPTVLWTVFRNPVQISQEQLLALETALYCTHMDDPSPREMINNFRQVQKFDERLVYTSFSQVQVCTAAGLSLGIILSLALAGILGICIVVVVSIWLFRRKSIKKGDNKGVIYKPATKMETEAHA
For the next test, the system named is Ca9-22. Put plainly: Cytotoxicity against human Ca9-22 cells assessed as reduction in cell viability incubated for 48 hrs by MTT assay. The format is functional.
A further test has as its system HSC-2. In words: Cytotoxicity against human HSC-2 cells assessed as reduction in cell viability incubated for 48 hrs by MTT assay. It counts as functional.
In another test the test system is MCF7. In words: Cytotoxicity against human MCF7 cells. The format is functional, cell-based.
Another test deals with Acetylcholinesterase (Homo sapiens, UniProt P22303).
Sequence of Acetylcholinesterase (P22303 whole entry): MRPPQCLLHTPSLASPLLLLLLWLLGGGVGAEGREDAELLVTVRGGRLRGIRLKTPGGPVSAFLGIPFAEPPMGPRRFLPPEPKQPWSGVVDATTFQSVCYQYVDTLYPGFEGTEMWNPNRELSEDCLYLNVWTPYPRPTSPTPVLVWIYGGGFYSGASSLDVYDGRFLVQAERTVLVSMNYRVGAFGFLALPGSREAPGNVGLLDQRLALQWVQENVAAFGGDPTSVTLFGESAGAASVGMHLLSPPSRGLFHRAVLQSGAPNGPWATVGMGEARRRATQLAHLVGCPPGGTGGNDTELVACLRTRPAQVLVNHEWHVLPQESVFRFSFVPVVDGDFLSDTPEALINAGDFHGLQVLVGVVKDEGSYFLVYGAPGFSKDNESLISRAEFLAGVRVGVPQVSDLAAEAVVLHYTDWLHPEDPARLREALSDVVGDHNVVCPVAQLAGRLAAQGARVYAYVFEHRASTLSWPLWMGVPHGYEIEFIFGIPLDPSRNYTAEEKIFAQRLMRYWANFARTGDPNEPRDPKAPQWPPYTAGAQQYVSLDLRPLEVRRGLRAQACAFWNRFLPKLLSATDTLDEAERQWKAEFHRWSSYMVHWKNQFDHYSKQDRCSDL
Test [5] can be described thus: Antioxidant activity assessed as DPPH radical scavenging activity. It counts as functional. In general terms: DPPH is a stable violet radical that fades when it is reduced.
Test [6] relates to Candida albicans. In words: Antifungal activity against Candida albicans by agar dilution method. The format is functional. For orientation: In agar dilution, organisms are placed on agar that contains the substance at set levels.
The target in another test is Carbonic anhydrase 4 (Homo sapiens, UniProt P22748). In words: Inhibition of human recombinant CA4.
Sequence of Carbonic anhydrase 4 (P22748 whole entry): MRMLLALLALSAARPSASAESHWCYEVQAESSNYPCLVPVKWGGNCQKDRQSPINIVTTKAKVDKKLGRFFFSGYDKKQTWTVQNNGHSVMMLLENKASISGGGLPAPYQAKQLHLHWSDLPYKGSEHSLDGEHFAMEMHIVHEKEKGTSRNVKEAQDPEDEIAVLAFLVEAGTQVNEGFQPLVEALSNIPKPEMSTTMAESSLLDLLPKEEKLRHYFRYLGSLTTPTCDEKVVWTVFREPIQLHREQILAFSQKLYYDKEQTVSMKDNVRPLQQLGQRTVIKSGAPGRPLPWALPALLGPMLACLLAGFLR
For test [7], the target named is T1, Carbonic anhydrase 9.
Test [8] addresses T2, Carbonic anhydrase 2 (Homo sapiens, UniProt P00918). Put plainly: Inhibition of human recombinant CA2.
Test [9] concerns the target T3, Carbonic anhydrase 1 (Homo sapiens, UniProt P00915). Put plainly: Inhibition of human recombinant CA1.
Test [10] has as its system Candida albicans. Put plainly: Antifungal activity against Candida albicans. It counts as functional.
The test system of another test is Aspergillus niger. Put plainly: Antifungal activity against Aspergillus niger. The format is functional.
The next test relates to Aspergillus clavatus. In words: Antifungal activity against Aspergillus clavatus. The format is functional.
In test [11] the target is T2, Carbonic anhydrase 2.
The target of test [12] is T3, Carbonic anhydrase 1.
Test [13] addresses T1, Carbonic anhydrase 9. Put plainly: Inhibition of human CA9.
The test system of a further test is Mus musculus. Put plainly: Antidiabetic activity against albino mouse assessed as reduction in blood glucose level at 0.2 mmol/Kg relative to control. The format is functional. Set-up: scale not given: the % may be the effect or the level left.

In brackets after ≈: the same amount, converted by molar mass.

T3 sequence (P00915 whole entry): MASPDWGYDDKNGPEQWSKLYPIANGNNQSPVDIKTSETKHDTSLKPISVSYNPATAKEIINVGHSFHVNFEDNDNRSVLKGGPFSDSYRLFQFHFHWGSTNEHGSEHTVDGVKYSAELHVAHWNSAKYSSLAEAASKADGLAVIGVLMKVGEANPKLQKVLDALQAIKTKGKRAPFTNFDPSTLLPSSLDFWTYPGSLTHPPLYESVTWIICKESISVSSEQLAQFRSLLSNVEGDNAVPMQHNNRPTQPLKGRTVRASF

`COC(=O)C1N=NN(CC(=O)N2N=C(c3nnn(Cc4ccccc4)c3C)CC2c2cccs2)C1C(=O)OC` (stereo unspecified): the MIC against Staphylococcus aureus amounted to 3.9 µg/mL (≈ 7.08 µM).
With `NS(=O)(=O)c1ccc(N2N=C(c3ccc(O)cc3)CC2c2ccc(Br)cc2)cc1` (stereo unspecified), the Ki (as a rule, a dissociation constant, usually derived from enzyme kinetics or from competition with a known ligand) worked out at 53.5 nM on Carbonic anhydrase 9 [1] and 6.2 nM on Carbonic anhydrase 12. Also, the CC50 (in test [2]; in [3]; in the test on HSC-3; in test [4]; in the test with Ca9-22; in the test on HSC-2) was 39300 nM in each case.
For the molecule `C[C@]12CC[C@@H]3c4ccc(O)cc4CC[C@H]3[C@@H]1CC1C2=NN(c2ccccc2)C1c1ccc(Br)cc1` (stereo partly specified), the IC50 (usually the concentration that inhibits the measured activity by half) in the test with MCF7 amounted to 43 nM.
`COc1ccc(C2CC(c3ccc(F)cc3)=NN2c2ccc(S(N)(=O)=O)cc2)cc1OC` (stereo unspecified): the affinity on Acetylcholinesterase corresponds to a Ki of 37.7 nM.
`CCOC(=O)C1N=NN(CC(=O)N2N=C(c3nnn(Cc4ccccc4)c3C)CC2c2cccs2)C1C(=O)OCC` (stereo unspecified) came in with an MIC with Staphylococcus aureus of 3.9 µg/mL (≈ 6.74 µM).
`COc1ccc2cc(C3CC(c4cc(Br)ccc4O)=NO3)c3nnnn3c2c1` (stereo unspecified): the IC50 in test [5] worked out at 23.3 µg/mL (≈ 52.9 µM). For the same molecule, the MIC against Candida albicans [6] is 25 µg/mL (≈ 56.8 µM).
Consider `CC(=O)N1N=C(c2ccc(OS(N)(=O)=O)cc2)CC1c1ccc(C(F)(F)F)cc1` (stereo unspecified), for which the Ki on Carbonic anhydrase 4 came to 17.7 nM; on Carbonic anhydrase 9 [7], 14.8 nM; on Carbonic anhydrase 2 [8], 0.4 nM; at Carbonic anhydrase 1 [9], 2460 nM.
With `O=C(c1ccncc1)N1N=C(c2ccccc2Cl)CC1c1cc2ccccc2nc1Cl` (stereo unspecified), the MIC against Candida albicans [10], with Aspergillus niger and in the test with Aspergillus clavatus was 12.5 µg/mL (≈ 27.9 µM) throughout.
On to `CC(=O)N1N=C(c2ccc(F)cc2)CC1c1cccc(OS(N)(=O)=O)c1` (stereo unspecified), for which the Ki came out at 17.7 nM at Carbonic anhydrase 4, 14.8 nM on Carbonic anhydrase 9 [7], 0.4 nM on Carbonic anhydrase 2 [8] and 2460 nM on Carbonic anhydrase 1 [9].
`NS(=O)(=O)c1ccc(N2N=C(c3ccc(O)cc3)CC2c2ccc([N+](=O)[O-])cc2)cc1` (stereo unspecified): the Ki at Carbonic anhydrase 9 [1] came out at 53.5 nM; at Carbonic anhydrase 12, 6.2 nM. For the same molecule, the CC50 (in test [2]; in [3]; with HSC-3; in test [4]; in the test on HSC-2) was 39300 nM each time.
Molecule `CN1N=C2C(C[C@H]3[C@@H]4CCc5cc(O)ccc5[C@H]4CC[C@]23C)C1c1ccc(Br)cc1` (stereo partly specified) returned an IC50 in the test on MCF7 of 43 nM.
For the molecule `NS(=O)(=O)c1ccc(C(=O)N2N=C(c3ccccc3)CC2c2ccc(Cl)cc2)cc1` (stereo unspecified), the inhibitory constant (Ki) on Carbonic anhydrase 2 [11] stood at 31.7 nM; at Carbonic anhydrase 1 [12], 87.8 nM; at Carbonic anhydrase 9 [13] it was 5.5 nM.
On the same counts, the results for `COc1ccc(C2=NN(C(=O)c3ccc(S(N)(=O)=O)cc3)C(c3ccc(OC)cc3)C2)cc1` (stereo unspecified) are 31.7 nM, 87.8 nM and 5.5 nM.
For `CN1N=C2C(C[C@H]3[C@@H]4CCc5cc(O)ccc5[C@H]4CC[C@]23C)C1c1cccs1` (stereo partly specified), in the test on MCF7, the IC50 was 43 nM.
`COc1ccc(C2CC(c3ccc(F)cc3)=NN2c2ccc(S(N)(=O)=O)cc2)c(OC)c1` (stereo unspecified) displayed a Ki at Acetylcholinesterase of 37.7 nM.
Turning to `COc1ccc(C2=NN(C(C)=O)C(c3ccc(OS(N)(=O)=O)cc3)C2)cc1` (stereo unspecified), the inhibitory constant (Ki) on Carbonic anhydrase 4 turned out to be 17.7 nM; on Carbonic anhydrase 9 [7], 14.8 nM; on Carbonic anhydrase 2 [8], 0.4 nM; at Carbonic anhydrase 1 [9], 2460 nM.
Consider `Cc1ccc(C2=NN(c3ccc(S(=O)(=O)NC(=O)Nc4ccccc4)cc3)C(c3ccc(F)cc3)C2)cc1` (stereo unspecified), for which the Activity in the test on Mus musculus amounted to 16%.
As to `CC(=O)N1N=C(c2ccc(OS(N)(=O)=O)cc2)CC1c1ccc([N+](=O)[O-])cc1` (stereo unspecified), the inhibition constant Ki on Carbonic anhydrase 4 was 17.7 nM; on Carbonic anhydrase 9 [7], 14.8 nM; at Carbonic anhydrase 2 [8] it was 0.4 nM; on Carbonic anhydrase 1 [9] it was 2460 nM.
Take `O=C(NC1CCCCC1)NS(=O)(=O)c1ccc(N2N=C(c3ccc(Br)cc3)CC2c2ccc(F)cc2)cc1` (stereo unspecified): the Activity in the test on Mus musculus was determined as 16%.
In the test on Candida albicans [6], `Cc1ccc2cc(C3CC(c4cc(Br)ccc4O)=NN3)c3nnnn3c2c1` (stereo unspecified) yielded an MIC of 25 µg/mL (≈ 59.1 µM).
`NS(=O)(=O)c1ccc(N2N=C(c3ccc(O)cc3)CC2c2ccc(F)cc2)cc1` (stereo unspecified): the values for the Ki at Carbonic anhydrase 9 [1] and at Carbonic anhydrase 12 were 53.5 nM and 6.2 nM, respectively. The CC50 (in test [2]; in [3]; in the test on HSC-3; in test [4]; in the test with Ca9-22; with HSC-2) was 39300 nM in each case.
In the case of `C[C@]12CC[C@@H]3c4ccc(O)cc4CC[C@H]3[C@@H]1CC1C2=NN(c2ccccc2)C1c1cccs1` (stereo partly specified), the IC50 with MCF7 was determined as 43 nM.
